Results from EP0563062B1, “HEXAPEPTIDES DERIVING FROM AGLUCOTEICOPLANIN AND A PROCESS FOR PREPARING THEM” (GRUPPO LEPETIT S.p.A., priority 1990, dated 1992).

Assays:
Experiment in all cases: MIC, microdilution method in broth, in comparison with teicoplanin
Format in all cases: cell-based
[1] = test system: S. epidermidis and S. haemolyticus, two species of Coagulase-Negative Staphylococci (CNS); conditions: relative to teicoplanin; Iso-Sensitest broth, inoculum about 10^5 cfu/ml, 18-24 hours at 37°C
Protocol: (§1) The antimicrobial activity, expressed as minimal inhibitory concentration (MIC), of the hexapeptide of formula (I), R = hydrogen, against selected strains of Gram-positive bacteria was determined in comparison with teicoplanin. The microdilution method in Difco Todd-Hewitt broth (Streptococci) or Oxoid Iso-Sensitest broth (Staphylococci) was used.

[2] = test system: Staphylococci and Streptococci; conditions: relative to teicoplanin; inoculum about 10^5 cfu/ml, 18-24 hours at 37°C
Protocol: as §1

[3] = test system: two strains of S. aureus and S. epidermidis showing low sensitivity to teicoplanin; conditions: Iso-Sensitest broth, 18-24 hours at 37°C
Protocol: as §1

aglucoteicoplanin hexapeptide
antimicrobial activity, expressed as minimal inhibitory concentration (MIC) [1]: same degree of activity | antimicrobial activity, expressed as minimal inhibitory concentration (MIC) [2]: generally less active than teicoplanin | antimicrobial activity (MIC), fold relative to teicoplanin [3]: four to sixteen times more active
